This note sets out measurements from patent US20210283053A1, “LIQUID FORMULATIONS OF GLUCAGON ANALOGUES” (Zealand Pharma A/S, priority 2020, published 2021).

The assay deals with RYGB-operated individuals with confirmed postprandial hypoglycaemia. The assay is described as follows: Crossover study with liquid mixed meal test, postprandial hypoglycaemia after Roux-en-Y gastric bypass. Type of assay: in vivo, human. Particulars: for time spent in level 2 hypoglycaemia (<3.1 mmol/l): n=5, placebo 31.0±5; for nadir PG: placebo 3.0±0.2; for time spent in hypoglycaemia (<3.9 mmol/l): placebo 62.0±8; for PG incremental AUC (iAUC70-240 min) after drug administration: placebo 752±19, p<0.0001. The source says: Postprandial hypoglycaemia is a frequent and debilitating complication following Roux-en-Y gastric bypass (RYGB), and no effective treatment exists. In a proof-of-concept study, we investigated the effects of dasiglucagon, a novel, stable glucagon analogue, on postprandial hypoglycaemia after RYGB. The primary aim of the present study was to examine the effects of two doses of dasiglucagon on the postprandial nadir plasma glucose concentration (PG) and time spent in hypoglycaemia (<3.9 mmol/l) in RYGB-operated individuals with confirmed postprandial hypoglycaemia.
Ten RYGB-operated individuals (two males, eight females; BMI 34.6 (21.8-39.0) kg/m^2; age 46 (29-67) years; HbA1c 32 (29-42) mmol/mol; time since operation 9.3 (6-11.5) years; weight loss since operation 53.9 (25.1-92.0) kg)) with confirmed symptomatic postprandial hypoglycaemia (PG<3.5 mmol/l verified by a 6-day continuous glucose monitoring) completed a double-blinded, randomised, crossover study comprising three separate treatment days, each including a standardised liquid mixed meal test (25 kJ per kg body mass; 50 E % carbohydrates, 35 E % fat and 15 E % protein). A subcutaneous injection of either placebo, 80 or 200 μg dasiglucagon (D80μg and D200μg) was administered after the postprandial PG peak, approximately 10 minutes before the projected time point where the PG returned to fasting levels using a subject-specific linear regression model. Blood sampling and assessment of hypoglycaemic symptoms, by the Edinburgh Hypoglycaemia Symptom Scale, were performed at fixed time intervals. Data were analysed using linear mixed models and Tukey's corrections model for multiple comparisons.

“Hy-HSQGTFTSDYSKYLD-Aib-ARAEEFVKWLEST-OH [Compound 1, glucagon analogue (dasiglucagon)]”: the “time spent in level 2 hypoglycaemia (<3.1 mmol/l)” value was 7 ± 5 min (80 μg subcutaneous, p>0.05) and 0.0 ± 0 min (200 μg subcutaneous, p=0.01). Further, the “nadir PG” value is, setting by setting: (80 μg subcutaneous, p=0.002) 3.9 ± 0.3 mmol/L; (200 μg subcutaneous, p=0.0002) 4.5 ± 0.2 mmol/L. Also, the “time spent in hypoglycaemia (<3.9 mmol/l)” value (80 μg subcutaneous, p=0.05) was determined as 27.5 ± 12 min and the “time spent in hypoglycaemia (<3.9 mmol/l)” value (200 μg subcutaneous, p=0.003) came to 14.0 ± 9 min. Also, the “PG incremental AUC (iAUC70-240 min) after drug administration” value runs as follows: (80 μg subcutaneous) 917 ± 22 mmol·min/L; (200 μg subcutaneous) 992 ± 28 mmol·min/L. For the same substance, the “participants who experienced level 2 hypoglycaemia (<3.1 mmol/l)” value (200 μg subcutaneous, five participants after placebo) is recorded as “none”. Where the note is “between the three study days (placebo, 80 and 200 μg)”, the “changes in hypoglycaemic symptoms (Edinburgh Hypoglycaemia Symptom Scale)” value is listed as “no significant changes”.
